Consider 18 molecules from patent US20200131129A1, “FARNESOID X RECEPTOR AGONISTS AND USES THEREOF” (Metacrine, Inc., priority 2017, published 2020).

Each structure is given as a SMILES string. Bounds are passed on as bounds.

This assay deals with T1, hFXR (Homo sapiens, UniProt Q96RI1).
T1 construct: expressed in transfected cells; host or cells: CV-1 cells
T1 sequence (Q96RI1 1-486): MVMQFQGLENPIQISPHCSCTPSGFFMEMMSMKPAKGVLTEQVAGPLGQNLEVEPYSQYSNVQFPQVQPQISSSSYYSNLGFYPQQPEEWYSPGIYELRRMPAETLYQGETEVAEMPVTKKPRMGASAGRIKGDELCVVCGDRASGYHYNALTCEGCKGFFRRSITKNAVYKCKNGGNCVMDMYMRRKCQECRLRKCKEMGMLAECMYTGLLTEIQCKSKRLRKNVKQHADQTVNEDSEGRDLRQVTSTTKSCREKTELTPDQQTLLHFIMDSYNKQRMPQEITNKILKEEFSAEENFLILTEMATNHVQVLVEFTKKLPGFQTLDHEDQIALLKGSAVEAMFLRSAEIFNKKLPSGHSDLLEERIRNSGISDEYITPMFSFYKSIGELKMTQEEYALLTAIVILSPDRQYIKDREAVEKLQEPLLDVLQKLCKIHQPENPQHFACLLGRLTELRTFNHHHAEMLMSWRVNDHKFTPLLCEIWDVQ
T1 sequence (P19793 1-462 partner): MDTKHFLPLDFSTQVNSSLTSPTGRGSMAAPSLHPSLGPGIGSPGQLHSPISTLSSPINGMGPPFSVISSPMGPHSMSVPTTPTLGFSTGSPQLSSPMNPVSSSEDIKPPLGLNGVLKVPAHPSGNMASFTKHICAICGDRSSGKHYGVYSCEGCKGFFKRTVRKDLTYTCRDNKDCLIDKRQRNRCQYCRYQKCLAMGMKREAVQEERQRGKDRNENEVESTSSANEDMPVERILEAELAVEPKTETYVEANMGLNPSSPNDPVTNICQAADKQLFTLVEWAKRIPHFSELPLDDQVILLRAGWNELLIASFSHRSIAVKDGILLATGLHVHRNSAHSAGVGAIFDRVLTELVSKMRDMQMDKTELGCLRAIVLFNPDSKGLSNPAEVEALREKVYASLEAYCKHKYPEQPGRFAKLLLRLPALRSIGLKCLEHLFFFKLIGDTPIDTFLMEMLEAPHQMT
Kind of assay: In Vitro FXR Assay (TK): hFXR/hRXR TK-ECRE-luc reporter in transfected CV-1 cells. It counts as cell-based. Conditions: CV-1 cells transfected with hFXR, hRXR, 18 hrs incubation, luminescence, maximum efficacy <25% of Fexarmine control also classified as ‘+’. As for the experimental part: Example B-1: In Vitro FXR Assay (TK)
CV-1 cells were seeded at a density of 2,000,000 cells in a T175 flask with DMEM+10% charcoal double-stripped FBS and incubated at 37° C. in 5% CO2 for 18 h (O/N).
After 18 h of incubation, the medium in the T175 flask was changed with fresh DMEM+10% charcoal super-stripped serum. In a polypropylene tube, 2500 μL OptiMEM (Life Technologies, Cat #31985-062) was combined with expression plasmids for hFXR, hRXR, TK-ECRE-luc and pCMX-YFP. The tube was then briefly vortexed and incubated at room temperature for 5 minutes. Transfection reagent (X-tremeGENE HP from Roche, Cat #06 366 236 001) was added to the OptiMEM/plasmid mixture vortexed and incubated at room temperature for 20 minutes. Following incubation, the transfection reagent/DNA mixture complex was added to cells in the T175 flask and the cells were incubated at 37° C. in 5% CO2 for 18 h (0/N).
Compounds were serially diluted in DMSO and added to transfected CV-1 cells. The cells were then incubated for 18 hrs. The next day cells were lysed and examined for luminescence.
A word on the EC50: it is the concentration at which the effect is half-maximal. Consider `COc1ccc([C@H]2CC[C@H](CN(c3cccc(-c4ccc(N(C)C)nc4)c3)C(=O)[C@H]3CC[C@H](O)CC3)CC2)cc1C` [Compound 1, trans-N-(3-(6-(Dimethylamino)pyridine-3-yl)phenyl)-4-hydroxy-N-((trans-4-(4-methoxy-3-methylphenyl)cyclohexyl)methyl)cyclohexanecarboxamide], for which the EC50 is no more than 500 nM. Under `COc1ccc(-c2cccc(N(C[C@H]3CC[C@H](c4ccc(OC)c(C)c4)CC3)C(=O)[C@H]3CC[C@H](O)CC3)c2)cn1` [Compound 1.01, trans-4-Hydroxy-N-((trans-4-(4-methoxy-3-methylphenyl)cyclohexyl)methyl)-N-(3-(6-methoxypyridin-3-yl)phenyl)cyclohexanecarboxamide] stands no more than 500 nM. Under `COc1ncc(-c2cccc(N(C[C@H]3CC[C@H](c4ccc(OC)c(C)c4)CC3)C(=O)[C@H]3CC[C@H](O)CC3)c2)cn1` [Compound 1.02, trans-4-Hydroxy-N-((trans-4-(4-methoxy-3-methylphenyl)cyclohexyl)methyl)-N-(3-(2-methoxypyrimidin-5-yl)phenyl)cyclohexanecarboxamide] stands no more than 500 nM; under `COc1ccc(-c2cccc(N(C[C@H]3CC[C@H](c4ccc(OC)c(C)c4)CC3)C(=O)[C@H]3CC[C@H](O)CC3)c2)nc1` [Compound 1.03, trans-4-Hydroxy-N-((trans-4-(4-methoxy-3-methylphenyl)cyclohexyl)methyl)-N-(3-(5-methoxypyridin-2-yl)phenyl)cyclohexanecarboxamide], no more than 500 nM. `COc1ccc([C@H]2CC[C@H](CN(c3cccc(-c4ccc(C(F)(F)F)nc4)c3)C(=O)[C@H]3CC[C@H](O)CC3)CC2)cc1C` [Compound 1.04, trans-4-Hydroxy-N-((trans-4-(4-methoxy-3-methylphenyl)cyclohexyl)methyl)-N-(3-(6-(trifluoromethyl)pyridine-3-yl)phenyl)cyclohexanecarboxamide]: the EC50 was no more than 500 nM.

In turn, `COc1ccc([C@H]2CC[C@H](CN(c3cccc(-c4cncc(C(F)(F)F)c4)c3)C(=O)[C@H]3CC[C@H](O)CC3)CC2)cc1C` [Compound 1.05, trans-4-Hydroxy-N-((trans-4-(4-methoxy-3-methylphenyl)cyclohexyl)methyl)-N-(3-(5-(trifluoromethyl)pyridine-3-yl)phenyl)cyclohexanecarboxamide] displayed an EC50 of no less than 1000 nM. Under `COc1ccc([C@H]2CC[C@H](CN(c3cccc(-c4ccc(OC(C)C)nc4)c3)C(=O)[C@H]3CC[C@H](O)CC3)CC2)cc1C` [Compound 1.06, trans-4-Hydroxy-N-(3-(6-isopropoxypyridin-3-yl)phenyl)-N-((trans-4-(4-methoxy-3-methylphenyl)cyclohexyl)methyl)cyclohexanecarboxamide] stands no more than 500 nM. As to `COc1ccc([C@H]2CC[C@H](CN(c3cccc(-c4ccc(C5CC5)nc4)c3)C(=O)[C@H]3CC[C@H](O)CC3)CC2)cc1C` [Compound 1.07, trans-N-(3-(6-Cyclopropylpyridin-3-yl)phenyl)-4-hydroxy-N-((trans-4-(4-methoxy-3-methylphenyl)cyclohexyl)methyl)cyclohexanecarboxamide], the EC50 was no more than 500 nM. The result for `COc1ccc(-c2cccc(N(C[C@H]3CC[C@H](c4ccc(OC)c(C)c4)CC3)C(=O)[C@H]3CC[C@H](O)CC3)c2)cc1C` [Compound 1.08, trans-4-Hydroxy-N-(4′-methoxy-3′-methyl-[1,1′-biphenyl]-3-yl)-N-((trans-4-(4-methoxy-3-methylphenyl)cyclohexyl)methyl)cyclohexanecarboxamide] reads 500 to 1000 nM; that for `COc1ccc([C@H]2CC[C@H](CN(c3cccc(-c4cnc(N(C)C)nc4)c3)C(=O)[C@H]3CC[C@H](O)CC3)CC2)cc1C` [Compound 1.09, trans-N-(3-(2-(Dimethylamino)pyrimidin-5-yl)phenyl)-4-hydroxy-N-((trans-4-(4-methoxy-3-methylphenyl)cyclohexyl)methyl)cyclohexanecarboxamide], no more than 500 nM; that for `COc1ccc([C@H]2CC[C@H](CN(c3cccc(-c4ccc(N5CCCC5)nc4)c3)C(=O)[C@H]3CC[C@H](O)CC3)CC2)cc1C` [Compound 1.10, trans-4-Hydroxy-N-((trans-4-(4-methoxy-3-methylphenyl)cyclohexyl)methyl)-N-(3-(6-(pyrrolidin-1-yl)pyridine-3-yl)phenyl)cyclohexanecarboxamide], no more than 500 nM. The result for `COc1ccc([C@H]2CC[C@H](CN(c3cc(-c4ccc(N(C)C)nc4)ccn3)C(=O)[C@H]3CC[C@H](O)CC3)CC2)cc1C` [Compound 1.11, trans-N-(6-(Dimethylamino)-[3,4′-bipyridin]-2′-yl)-4-hydroxy-N-((trans-4-(4-methoxy-3-methylphenyl)cyclohexyl)methyl)cyclohexanecarboxamide] reads no more than 500 nM.

Molecule `COc1cnc(-c2cccc(N(C[C@H]3CC[C@H](c4ccc(OC)c(C)c4)CC3)C(=O)[C@H]3CC[C@H](O)CC3)c2)nc1` [Compound 2.01, trans-4-Hydroxy-N-((trans-4-(4-methoxy-3-methylphenyl)cyclohexyl)methyl)-N-(3-(5-methoxypyrimidin-2-yl)phenyl)cyclohexanecarboxamide] registered an EC50 of no more than 500 nM.

Molecule `COc1cnc(-c2cccc(N(C[C@H]3CC[C@H](c4ccc(OC)c(C)c4)CC3)C(=O)[C@H]3CC[C@H](O)CC3)c2)cn1` [Compound 2.02, trans-4-Hydroxy-N-((trans-4-(4-methoxy-3-methylphenyl)cyclohexyl)methyl)-N-(3-(5-methoxypyrazin-2-yl)phenyl)cyclohexanecarboxamide] had an EC50 of no more than 500 nM. Under `COc1ccc([C@H]2CC[C@H](CN(c3cccc(-c4ccc(C(C)C)nc4)c3)C(=O)[C@H]3CC[C@H](O)CC3)CC2)cc1C` [Compound 2.03, trans-4-Hydroxy-I-(3-(6-isopropylpyridin-3-yl)phenyl)-N-((trans-4-(4-methoxy-3-methylphenyl)cyclohexyl)methyl)cyclohexanecarboxamide] stands no more than 500 nM; under `COc1ccc([C@H]2CC[C@H](CN(c3cccc(-c4nnc(C)s4)c3)C(=O)[C@H]3CC[C@H](O)CC3)CC2)cc1C` [Compound 2.04, trans-4-Hydroxy-N-((trans-4-(4-methoxy-3-methylphenyl)cyclohexyl)methyl)-N-(3-(5-methyl-1,3,4-thiadiazol-2-yl)phenyl)cyclohexanecarboxamide], no less than 1000 nM; under `COc1ccc([C@H]2CC[C@H](CN(c3cccc(-c4cn(C)nn4)c3)C(=O)[C@H]3CC[C@H](O)CC3)CC2)cc1C` [Compound 2.05, trans-4-Hydroxy-N-((trans-4-(4-methoxy-3-methylphenyl)cyclohexyl)methyl)-N-(3-(1-methyl-1H-1,2,3-triazol-4-yl)phenyl)cyclohexanecarboxamide], no less than 1000 nM. `COc1ccc([C@H]2CC[C@H](CN(c3cccc(-c4cc(C)ns4)c3)C(=O)[C@H]3CC[C@H](O)CC3)CC2)cc1C` [Compound 2.06, trans-4-Hydroxy-N-((trans-4-(4-methoxy-3-methylphenyl)cyclohexyl)methyl)-N-(3-(3-methylisothiazol-5-yl)phenyl)cyclohexanecarboxamide] yielded an EC50 of no more than 500 nM.
